Results as given in BigSolDB 2.1.

SMILES: CC(C)(C)NCC(O)c1ccc(O)c(CO)c1 (stereo not given)
- solubility (mole fraction) (in acetone, 283.15 K): 0.000146
- solubility (mole fraction) (in acetone, 288.15 K): 0.000162
- solubility (mole fraction) (in acetone, 293.15 K): 0.000185
- solubility (mole fraction) (in acetone, 298.15 K): 0.000211
- solubility (mole fraction) (in acetone, 303.15 K): 0.000237
- solubility (mole fraction) (in acetone, 308.15 K): 0.000271
- solubility (mole fraction) (in acetone, 313.15 K): 0.000302
- solubility (mole fraction) (in acetone, 318.15 K): 0.000346
- solubility (mole fraction) (in acetone, 323.15 K): 0.000396
- solubility (mole fraction) (in acetone, 328.15 K): 0.000451
- solubility (mole fraction) (in ethanol, 283.15 K): 0.00218
- solubility (mole fraction) (in ethanol, 288.15 K): 0.00228
- solubility (mole fraction) (in ethanol, 293.15 K): 0.00271
- solubility (mole fraction) (in ethanol, 298.15 K): 0.00323
- solubility (mole fraction) (in ethanol, 303.15 K): 0.00412
- solubility (mole fraction) (in ethanol, 308.15 K): 0.0049
- solubility (mole fraction) (in ethanol, 313.15 K): 0.00585
- solubility (mole fraction) (in ethanol, 318.15 K): 0.00709
- solubility (mole fraction) (in ethanol, 323.15 K): 0.00846
- solubility (mole fraction) (in ethanol, 328.15 K): 0.0103
- solubility (mole fraction) (in ethyl acetate, 283.15 K): 0.000185
- solubility (mole fraction) (in ethyl acetate, 288.15 K): 0.000204
- solubility (mole fraction) (in ethyl acetate, 293.15 K): 0.000231
- solubility (mole fraction) (in ethyl acetate, 298.15 K): 0.000261
- solubility (mole fraction) (in ethyl acetate, 303.15 K): 0.00029
- solubility (mole fraction) (in ethyl acetate, 308.15 K): 0.000323
- solubility (mole fraction) (in ethyl acetate, 313.15 K): 0.000363
- solubility (mole fraction) (in ethyl acetate, 318.15 K): 0.000399
- solubility (mole fraction) (in ethyl acetate, 323.15 K): 0.000452
- solubility (mole fraction) (in ethyl acetate, 328.15 K): 0.000501
- solubility (mole fraction) (in isobutanol, 283.15 K): 0.00154
- solubility (mole fraction) (in isobutanol, 288.15 K): 0.00172
- solubility (mole fraction) (in isobutanol, 293.15 K): 0.00192
- solubility (mole fraction) (in isobutanol, 298.15 K): 0.00217
- solubility (mole fraction) (in isobutanol, 303.15 K): 0.00243
- solubility (mole fraction) (in isobutanol, 308.15 K): 0.00272
- solubility (mole fraction) (in isobutanol, 313.15 K): 0.00304
- solubility (mole fraction) (in isobutanol, 318.15 K): 0.00343
- solubility (mole fraction) (in isobutanol, 323.15 K): 0.00385
- solubility (mole fraction) (in isobutanol, 328.15 K): 0.00432
- solubility (mole fraction) (in isopropanol, 283.15 K): 0.00185
- solubility (mole fraction) (in isopropanol, 288.15 K): 0.00205
- solubility (mole fraction) (in isopropanol, 293.15 K): 0.00244
- solubility (mole fraction) (in isopropanol, 298.15 K): 0.00278
- solubility (mole fraction) (in isopropanol, 303.15 K): 0.00331
- solubility (mole fraction) (in isopropanol, 308.15 K): 0.00382
- solubility (mole fraction) (in isopropanol, 313.15 K): 0.00441
- solubility (mole fraction) (in isopropanol, 318.15 K): 0.00512
- solubility (mole fraction) (in isopropanol, 323.15 K): 0.00597
- solubility (mole fraction) (in isopropanol, 328.15 K): 0.00698
- solubility (mole fraction) (in methanol, 283.15 K): 0.00599
- solubility (mole fraction) (in methanol, 288.15 K): 0.00671
- solubility (mole fraction) (in methanol, 293.15 K): 0.00745
- solubility (mole fraction) (in methanol, 298.15 K): 0.00824
- solubility (mole fraction) (in methanol, 303.15 K): 0.00909
- solubility (mole fraction) (in methanol, 308.15 K): 0.0101
- solubility (mole fraction) (in methanol, 313.15 K): 0.0112
- solubility (mole fraction) (in methanol, 318.15 K): 0.0124
- solubility (mole fraction) (in methanol, 323.15 K): 0.0137
- solubility (mole fraction) (in methanol, 328.15 K): 0.0152
- solubility (mole fraction) (in methyl acetate, 283.15 K): 0.000377
- solubility (mole fraction) (in methyl acetate, 288.15 K): 0.00041
- solubility (mole fraction) (in methyl acetate, 293.15 K): 0.000441
- solubility (mole fraction) (in methyl acetate, 298.15 K): 0.000471
- solubility (mole fraction) (in methyl acetate, 303.15 K): 0.000509
- solubility (mole fraction) (in methyl acetate, 308.15 K): 0.000545
- solubility (mole fraction) (in methyl acetate, 313.15 K): 0.00059
- solubility (mole fraction) (in methyl acetate, 318.15 K): 0.000631
- solubility (mole fraction) (in methyl acetate, 323.15 K): 0.000682
- solubility (mole fraction) (in methyl acetate, 328.15 K): 0.000735
- solubility (mole fraction) (in n-butanol, 283.15 K): 0.00109
- solubility (mole fraction) (in n-butanol, 288.15 K): 0.0012
- solubility (mole fraction) (in n-butanol, 293.15 K): 0.00134
- solubility (mole fraction) (in n-butanol, 298.15 K): 0.00151
- solubility (mole fraction) (in n-butanol, 303.15 K): 0.00168
- solubility (mole fraction) (in n-butanol, 308.15 K): 0.00187
- solubility (mole fraction) (in n-butanol, 313.15 K): 0.00211
- solubility (mole fraction) (in n-butanol, 318.15 K): 0.00233
- solubility (mole fraction) (in n-butanol, 323.15 K): 0.00262
- solubility (mole fraction) (in n-butanol, 328.15 K): 0.00292
- solubility (mole fraction) (in n-propanol, 283.15 K): 0.00212
- solubility (mole fraction) (in n-propanol, 288.15 K): 0.00235
- solubility (mole fraction) (in n-propanol, 293.15 K): 0.00267
- solubility (mole fraction) (in n-propanol, 298.15 K): 0.00317
- solubility (mole fraction) (in n-propanol, 303.15 K): 0.0036
- solubility (mole fraction) (in n-propanol, 308.15 K): 0.00413
- solubility (mole fraction) (in n-propanol, 313.15 K): 0.00479
- solubility (mole fraction) (in n-propanol, 318.15 K): 0.00552
- solubility (mole fraction) (in n-propanol, 323.15 K): 0.00634
- solubility (mole fraction) (in n-propanol, 328.15 K): 0.00743
- solubility (mole fraction) (in sec-butanol, 283.15 K): 0.00102
- solubility (mole fraction) (in sec-butanol, 288.15 K): 0.00115
- solubility (mole fraction) (in sec-butanol, 293.15 K): 0.00131
- solubility (mole fraction) (in sec-butanol, 298.15 K): 0.00145
- solubility (mole fraction) (in sec-butanol, 303.15 K): 0.00163
- solubility (mole fraction) (in sec-butanol, 308.15 K): 0.00182
- solubility (mole fraction) (in sec-butanol, 313.15 K): 0.00202
- solubility (mole fraction) (in sec-butanol, 318.15 K): 0.00227
- solubility (mole fraction) (in sec-butanol, 323.15 K): 0.00252
- solubility (mole fraction) (in sec-butanol, 328.15 K): 0.00286
